The values that follow come from PubChem BioAssay (NCI).

SMILES strings stand for the structures.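 Where inhibition never reached the appropriate level, the endpoint shown equals the highest concentration tested. Otherwise, values were interpolated linearly from a five-concentration, 48-hour dose response in 96-well plates. GI50: concentration for 50% inhibition of growth. At the TGI there is no net growth.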 Bounds are passed on as bounds.

Holding throughout (assay): NCI-60 cell line screen, 48 h
For assay [1], the system named is COLO 205 colon.
Assay [2] concerns HCC-2998 colon.
The test system of assay [3] is K-562 leukemia.
For assay [4], the system named is NCI-H522 lung.
In assay [5] the test system is SF-539 CNS.
In assay [6] the test system is SK-MEL-2 melanoma.
Assay [7] concerns SN12C renal.
For assay [8], the system named is SNB-19 CNS.
The test system of assay [9] is SNB-75 CNS.
In assay [10] the test system is T-47D breast.

On to `C=C1C(=O)O[C@H]2[C@H]1CC/C(COC(=O)/C=C\C(=O)NCc1ccc(Cn3c(=O)sn(-c4ccc(OC)cc4)c3=O)cc1)=C\CC[C@@]1(C)O[C@@H]21`, for which the GI50 in assay [1] was 0.633 µM; in [2], 0.881 µM; in assay [3], 0.603 µM; in assay [4], 0.648 µM; in assay [5], 0.736 µM; in assay [6], 0.882 µM. Moreover, the GI50 was 0.636 µM in assay [7], 0.879 µM in assay [8], 0.407 µM in [9] and 0.839 µM in assay [10]. For the same molecule, the TGI is 2.02 µM in assay [1]; 1.67 µM in assay [2]; 50 µM in assay [3]; 1.56 µM in [4]; 1.41 µM in assay [5]; 1.94 µM in [6]. Also, the TGI was determined as 1.46 µM in [7], 1.78 µM in assay [8], 1.23 µM in assay [9] and 2.02 µM in [10].
Consider `Cc1ccc(Cl)cc1Nc1nc(C(F)(F)F)ccc1C(=O)N/N=C/c1c(Cl)cccc1Cl`, for which the GI50 is 0.395 µM in assay [1]; 1.24 µM in [2]; 0.734 µM in [3]; 1.77 µM in assay [4]; 1.62 µM in [5]; 1.94 µM in assay [6]. Also, the GI50 in assay [7] was 1.2 µM; in assay [8], 1.75 µM; in [9] it was 1.45 µM; in assay [10], 0.517 µM. Also, the TGI was 1.72 µM in [1]; 31.5 µM in [2]; above 32.1 µM in assay [3]; 5.98 µM in assay [4]; 5.05 µM in [5]; 4.86 µM in [6]. Besides, the TGI in assay [7] was 12.2 µM; in assay [8], above 52.2 µM; in assay [9], above 24.2 µM; in assay [10] it was 5.18 µM.
With `CCCN(CCC)c1ccc(C=O)cc1`, the GI50 in assay [1] is above 77.6 µM; in assay [2], above 67.5 µM; in assay [3] it was 25.7 µM; in [4], 28 µM; in assay [5], above 100 µM; in assay [6], 98.2 µM. Also, the GI50 in assay [7] was above 96.2 µM; in assay [8], 62 µM; in assay [9], 18.4 µM; in assay [10] it was 21.1 µM. For the same molecule, the TGI in assay [1], in assay [2], in assay [3], in assay [4], in assay [5] and in assay [6] was above 100 µM throughout. Besides, the TGI in assay [7], in [8], in assay [9] and in assay [10] was above 100 µM throughout.
Turning to `O=C(O)CN(CC(=O)O)Cc1cc2c(cc1O)Oc1cc(O)c(CN(CC(=O)O)CC(=O)O)cc1C21OC(=O)c2ccccc21`, the TGI in assay [1], in assay [2], in assay [3], in assay [4], in assay [5] and in assay [6] was above 100 µM each time. In addition, the TGI in [7], in assay [8], in assay [9] and in assay [10] was above 100 µM throughout.
As to `CCOC(=O)C1=C(N)Oc2c(sc3c(C)cccc23)C1c1ccc(Cl)cc1` (stereo not given), the GI50 was 3.46 µM in [1]; 2.32 µM in [2]; 1.32 µM in assay [3]; 1.22 µM in assay [4]; 1.8 µM in assay [5]; 5.83 µM in assay [6]. Moreover, the GI50 in assay [7] is 3.97 µM; in assay [8] it was 3.71 µM; in assay [9] it was 0.643 µM; in [10], 2.79 µM. The TGI in assay [1] was 14.1 µM; in assay [2], 6.63 µM; in assay [3], above 100 µM; in assay [4], 6.28 µM; in assay [5] it was 5.57 µM; in [6], 22.4 µM. Further, the TGI in assay [7] worked out at 16.1 µM; in [8] it was 16 µM; in assay [9], 7.79 µM; in assay [10] it was 18.8 µM.
Regarding `C#CC[C@@H]1C[C@]2(C)[C@H]3CC[C@@H]4[C@H]5[C@H](C(=C)C)CC[C@]5(C(=O)O)CC[C@@]4(C)[C@]3(C)CC[C@H]2C(C)(C)[C@H]1O`, the GI50 in [1] was 2.09 µM; in [2], 4.44 µM; in [3] it was 2.32 µM; in assay [4] it was 2.95 µM; in assay [5] it was 2.67 µM; in [6], 2.4 µM. For the same molecule, the GI50 in [7] is 2.98 µM; in [8] it was 3.04 µM; in [9], 1.95 µM; in assay [10] it was 1.79 µM. Also, the TGI in [1] is 4.68 µM; in [2] it was 38.5 µM; in assay [3], 20.9 µM; in assay [4], 12.3 µM; in assay [5] it was 7.88 µM; in [6], 6.78 µM. For the same molecule, the TGI in [7] came to 11.6 µM; in [8] it was 13.4 µM; in assay [9], 4.12 µM; in assay [10], 4.66 µM.
Take `C[N+](C)(C)CCC(=O)N1C/C(=C\c2ccccc2)C(=O)/C(=C/c2ccccc2)C1`: the TGI in [1] worked out at 13.4 µM; in assay [2] it was 13.2 µM; in [3], 6.3 µM; in assay [4] it was 5.42 µM; in assay [5] it was 11.8 µM; in assay [6] it was 30.1 µM. Moreover, the TGI in assay [7] is 4.59 µM; in [8], 12.2 µM; in assay [9] it was 24.3 µM; in assay [10], 4.41 µM.
As to `C=CCCC(O)c1ccc(C(O)CCCCCCCCCCCC)o1` (stereo not given), the GI50 was 40.5 µM in [1]; 21.4 µM in assay [2]; 9.29 µM in [3]; 17.3 µM in assay [4]; 19.7 µM in [5]; 28.6 µM in assay [6]. The GI50 in assay [7] was 18.3 µM; in assay [8] it was 51.6 µM; in assay [9] it was 33.3 µM; in assay [10], 34.3 µM. Further, the TGI in assay [1] is above 100 µM; in assay [2], 37.2 µM; in assay [3], 27.2 µM; in assay [4], 44.4 µM; in [5], 37.5 µM; in assay [6] it was 89.4 µM. For the same molecule, the TGI in [7] was 34.2 µM; in [8] it was above 100 µM; in [9], above 100 µM; in [10], above 100 µM.
